Measured values published in patent US20120316105A1, “Polymyxin Derivates Useful As Antibacterial Agents” (priority 2011, published 2012).
Bridge positions count the residues as written; N and C are the ends. Square brackets hold non-standard residues; d marks the D form. Peptide text beside a SMILES is read from it. * marks the point of attachment. Quinoline3carbonyl = O=C(c1cnc2ccccc2c1)*; X9 = N#Cc1ccc(-c2cc(C(=O)*)ccc2F)nc1; X34 = COc1ccc(-c2cc(C(=O)*)ccn2)cc1; X6 = O=C(c1cccc(-c2ccc(F)cc2)c1)*; X11 = Cc1ccccc1-c1cccc(C(=O)*)c1; X14 = CC(C)c1cccc(C(=O)*)c1; Dab = NCC[C@H](N)C(=O)O; Dap = NC[C@H](N)C(=O)O

Experiments:
[1] = test system: AB-1649, polymyxin-resistant clinical isolate of Acinetobacter baumannii; assay type: cell-based; conditions: AB-1649, polymyxin-resistant clinical isolate of
Method: (§1) Minimum bactericidal concentration (MBC, mg/L), minimum inhibitory concentration (MIC, mg/L), and human renal proximal tubule epithelial cell line cytotoxicity concentration 50% (hRPTEC, TC50, micromolar) for compounds of Formula I are listed in Table 2. The compounds of Formula I were tested as the corresponding trifluoroacetate salt except for Example 1 which was tested as the sulfate salt. For Table 2 below: PMB=polymyxin B as the sulfate salt (Bedford Laboratories, pharmaceutical grade); PMB1=polymyxin B1 as the trifluoroacetate salt; Nona=polymyxin B nonapeptide as the trifluoroacetate salt. PMB1 and Nona were prepared using the solid phase methodology described in the experimental section herein.
(§2) The in vitro antibacterial activity of compounds of Formula I was evaluated by MIC testing according to Clinical and Laboratory Standards Institute (CLSI). See: Clinical and Laboratory Standards Institute. Methods for Dilution Antimicrobial Susceptibility Tests for Bacteria that Grow Aerobically; Approved Standard-Eighth Edition. CLSI document M7-A8 [ISBN 1-56238-689-1]. Clinical and Laboratory Standards Institute, 940 West Valley Road, Suite 1400, Wayne, Pa. 19087-1898 USA, 2006; also Clinical and Laboratory Standards Institute. Performance Standards for Antimicrobial Susceptibility Testing; Twentieth Informational Supplement. CLSI document M100-S20 [ISBN 1-56238-716-2]. Clinical and Laboratory Standards Institute. Methods for Determining Bactericidal Activity of Antimicrobial Agents; Approved Guideline. CLSI document M26-A (ISBN 1-56238-384-1). CLSI, 940 West Valley Road, Suite 1400, Wayne, Pa. 19087-1898 USA, 1999.
(§3) The MIC determination is a standard laboratory method for evaluating the antibacterial activity of a compound. The MIC represents the lowest drug concentration that inhibits visible growth of bacteria following overnight incubation. […] Typically, the drug concentration range is broken down into 2-fold increments (e.g. 0.06 mg/L, 0.12 mg/L, 0.25 mg/L, 0.50 mg/L, 1.0 mg/L, etc.) and the various drug concentrations are all individually incubated overnight with approximately the same number of bacteria. The MIC is then determined by visually inspecting the drug effect at each concentration, and identifying the lowest drug concentration that has inhibited bacterial growth as compared to the drug free control. Typically, bacteria continue to grow at drug concentrations lower than the MIC and don't grow at concentrations at and above the MIC.
(§4) The MIC values described in Table 2 below were derived from assays wherein each test compound was evaluated in duplicate. In cases where the duplicate values varied by 0-2-fold, the lower of the two values was reported below. Generally speaking, if the duplicate values varied by more than 2-fold, the assay was considered non-valid and was repeated until the variation between duplicate runs was ≦2-fold. In line with the CLSI guidelines referred to above, both control organisms and reference compounds were utilized in each MIC assay to provide proper quality control. MIC values generated with these control organisms and reference compounds were required to fall within a defined range for the assay to be considered valid and be included herein. Those skilled in the art will recognize that MIC values can and do vary from experiment to experiment. Generally speaking, it should be recognized that MIC values often vary +/−2-fold from experiment to experiment. While a single MIC is reported for each compound and each microorganism, the reader should not conclude that each compound was only tested once. Several of the compounds were subjected to multiple tests. The data reported in Table 2 is reflective of the compounds relative activity and different MICs may have been generated on these occasions in line with the guidelines described above.
(§5) The following bacterial strains were used in these MIC determinations: […]

[2] = test system: Pseudomonas aeruginosa strain PA01; assay type: cell-based; conditions: strain
Method: as §1, §2, §3, §4, §5

[3] = test system: AB-3167, clinical isolate of Acinetobacter baumannii; assay type: cell-based; conditions: AB-3167, clinical isolate of
Method: as §1, §2, §3, §4, §5

[4] = test system: PA-1646, polymyxin-resistant clinical isolate of Pseudomonas aeruginosa; assay type: cell-based; conditions: PA-1646, polymyxin-resistant clinical isolate of
Method: as §1, §2, §3, §4, §5

[5] = test system: PA-1646, polymyxin-resistant clinical isolate of Pseudomonas aeruginosa; assay type: cell-based; conditions: PA-1646, polymyxin-resistant clinical isolate of; remark: listed apart in the source
Method: as §1, §2
PA-1646 is a polymyxin-resistant clinical isolate of Pseudomonas aeruginosa obtained from JMI labs (www.jmilabs.com);

[6] = test system: EC-1, mouse virulent strain of Escherichia coli; assay type: cell-based; conditions: E. coli EC-1; overnight incubation, lower of duplicate values; trifluoroacetate salt (Example 1 and PMB sulfate)
Method: as §1, §2, §3, §4
The following bacterial strains were used in these MIC determinations:
EC-1 is a mouse virulent strain of Escherichia coli.

[7] = test system: AB-1649, polymyxin-resistant clinical isolate of Acinetobacter baumannii; assay type: cell-based; conditions: AB-1649, polymyxin-resistant clinical isolate of; remark: listed apart in the source
Method: as §1, §2
AB-1649 is a polymyxin-resistant clinical isolate of Acinetobacter baumannii obtained from JMI labs (www.jmilabs.com);

[8] = Cytotoxicity assay (LDH release), hRPTEC; assay type: cell-based, human; conditions: human
Method: as §1
Human Renal Proximal Tubule Epithelial cells (hRPTEC) were obtained from Lonza (Walkersville, Md., USA) and cultured in REGM (Renal Epithelial Cell Basal Medium supplemented with human epithelial growth factor, hydrocortisone, epinephrine, insulin, triiodothyronine, transferrin, gentamycin/amphotericin-B, and fetal bovine serum). The hRPTEC cells were seeded into 96-well plates and incubated at 37° C. in 5% CO2. Following a growth period of 72 hours, cells were treated with compounds at 100, 67, 44, 30, 20 and 13 micromolar for 24 hours at 37° C. in 5% CO2. The cell supernatant was then harvested for determination of LDH (lactate dehydrogenase) production. The Cytotoxicity Detection Kit from Roche was used for the measurement of LDH activity released from damaged cells. The Toxic Concentration 50% (TC50, micromolar) values were determined for each compound and compared to the control compounds (polymyxin B was used as a positive control and polymyxin B nonapepetide was used as negative control).

Structure (SMILES)	AB-1649 MIC [1]	PA01 MIC [2]	AB-3167 MIC [3]	PA-1646 MIC [4]	PA-1646 MBC [5]	EC-1 MIC [6]	AB-1649 MBC [7]	CC50 at 24 h [8]
CC(C)C[C@@H]1NC(=O)[C@@H](Cc2ccccc2)NC(=O)[C@H](CCN)NC(=O)[C@@H](NC(=O)[C@H](CN)NC(=O)[C@@H](NC(=O)[C@H](CCN)NC(=O)c2cccc(-c3ccc(F)cc3)c2)[C@@H](C)O)CCNC(=O)[C@H]([C@@H](C)O)NC(=O)[C@H](CCN)NC(=O)[C@H](CCN)NC1=O [Example 20] (X6-[Dab]T[Dap][Dab][Dab][dF]L[Dab][Dab]T; lactam 4-C)	2 µg/mL	0.5 µg/mL	0.25 µg/mL	1 µg/mL	1 µg/mL	0.25 µg/mL	2 µg/mL	18 µM
Cc1ccccc1-c1cccc(C(=O)N[C@@H](CCN)C(=O)N[C@H](C(=O)N[C@@H](CN)C(=O)N[C@H]2CCNC(=O)[C@H]([C@@H](C)O)NC(=O)[C@H](CCN)NC(=O)[C@H](CCN)NC(=O)[C@H](CC(C)C)NC(=O)[C@@H](Cc3ccccc3)NC(=O)[C@H](CCN)NC2=O)[C@@H](C)O)c1 [Example 21] (X11-[Dab]T[Dap][Dab][Dab][dF]L[Dab][Dab]T; lactam 4-C)	2 µg/mL	1 µg/mL	0.25 µg/mL	2 µg/mL	2 µg/mL	0.25 µg/mL	2 µg/mL	15 µM
COc1ccc(-c2cc(C(=O)N[C@@H](CCN)C(=O)N[C@H](C(=O)N[C@@H](CN)C(=O)N[C@H]3CCNC(=O)[C@H]([C@@H](C)O)NC(=O)[C@H](CCN)NC(=O)[C@H](CCN)NC(=O)[C@H](CC(C)C)NC(=O)[C@@H](Cc4ccccc4)NC(=O)[C@H](CCN)NC3=O)[C@@H](C)O)ccn2)cc1 [Example 22] (X34-[Dab]T[Dap][Dab][Dab][dF]L[Dab][Dab]T; lactam 4-C)	2 µg/mL	0.5 µg/mL	0.25 µg/mL	2 µg/mL	8 µg/mL	0.25 µg/mL	2 µg/mL	78 µM
CC(C)C[C@@H]1NC(=O)[C@@H](Cc2ccccc2)NC(=O)[C@H](CCN)NC(=O)[C@@H](NC(=O)[C@H](CN)NC(=O)[C@@H](NC(=O)[C@H](CCN)NC(=O)c2cnc3ccccc3c2)[C@@H](C)O)CCNC(=O)[C@H]([C@@H](C)O)NC(=O)[C@H](CCN)NC(=O)[C@H](CCN)NC1=O [Example 23] (Quinoline3carbonyl-[Dab]T[Dap][Dab][Dab][dF]L[Dab][Dab]T; lactam 4-C)	4 µg/mL	0.25 µg/mL	0.5 µg/mL	4 µg/mL	4 µg/mL	0.125 µg/mL	8 µg/mL	> 100 µM
CC(C)C[C@@H]1NC(=O)[C@@H](Cc2ccccc2)NC(=O)[C@H](CCN)NC(=O)[C@@H](NC(=O)[C@H](CN)NC(=O)[C@@H](NC(=O)[C@H](CCN)NC(=O)c2ccc(F)c(-c3ccc(C#N)cn3)c2)[C@@H](C)O)CCNC(=O)[C@H]([C@@H](C)O)NC(=O)[C@H](CCN)NC(=O)[C@H](CCN)NC1=O [Example 24] (X9-[Dab]T[Dap][Dab][Dab][dF]L[Dab][Dab]T; lactam 4-C)	4 µg/mL	1 µg/mL	0.5 µg/mL	4 µg/mL	16 µg/mL	0.25 µg/mL	8 µg/mL	> 100 µM
CC(C)C[C@@H]1NC(=O)[C@@H](Cc2ccccc2)NC(=O)[C@H](CCN)NC(=O)[C@@H](NC(=O)[C@H](CN)NC(=O)[C@@H](NC(=O)[C@H](CCN)NC(=O)c2cccc(C(C)C)c2)[C@@H](C)O)CCNC(=O)[C@H]([C@@H](C)O)NC(=O)[C@H](CCN)NC(=O)[C@H](CCN)NC1=O [Example 25] (X14-[Dab]T[Dap][Dab][Dab][dF]L[Dab][Dab]T; lactam 4-C)	4 µg/mL	1 µg/mL	0.25 µg/mL	4 µg/mL	16 µg/mL	0.25 µg/mL	4 µg/mL	88 µM
